Data reported in patent US20030104946A1, “Herbicidal mixture comprising a benzoyl derivative, a fertilizer containing nitrogen and an adjuvant” (priority 2001, published 2003).

What was measured:
ZEAMA (Maize) = test: Weed control postemergence in maize under field conditions, outdoor pot trial (Example 4); assay type: in vivo; conditions: Tables 5 and 6
From the text: Seeds of various crop and weed species were planted in a sandy-loamy soil and placed in a climate chamber in a greenhouse under good growth conditions. Four weeks after sowing, the plants were sprayed with a tank mixture containing the formulated test compound at a spray rate of 300 l/ha of spray solution. The plants were visually assessed fourteen days after application, and the percentage control of the plants is shown in Tables 1 and 2.
Using the method of Example 1 but in an outdoor pot trial in the field there were obtained the following results shown in Tables 5, 6 and 7. […]

[1] = system: ORYSP (Transplanted Paddy Rice); test: Effect on weeds in rice by water application (Example 3); assay type: in vivo; conditions: mixtures of Table 4
From the text: Seeds of the various weed species and rice were planted in a sandy-loamy soil in a greenhouse under good growth conditions. Three weeks after sowing the tank mixture containing the formulated test compound was applied to the plants submerged in the paddy water. The plants were visually assessed three weeks after application, and the percentage control of the plants is-shown in Table 4 in comparison with untreated controls.

With CCS(=O)(=O)c1ccc(C(=O)C2C(=O)CCCC2=O)c(Cl)c1C1=NOC(CC#N)C1 (centres unmarked) [B2, 2-[2-chloro-3-(5-cyanomethylisoxazolin-3-yl)-4-ethylsulfonylbenzoyl]cyclohexane-1,3-dione] the maize damage (ZEAMA (Maize)) was “No maize damage was observed” and the rice damage [1] was “No rice damage was observed”.
